Results published in US20240252668A1, “ANTIBODY DRUG CONJUGATES AND METHODS FOR MAKING THEREOF” (Novartis AG, priority 2021, published 2024).
Where two headings read alike, the source gives them in different places. Starred links: 1 amine or outer side, 2 acyl side, 3 side chain; linkers in the order of their positions; H or OH if unused. Positions of bridges follow the written chain, without caps; N, C: chain ends. Non-standard residues stand in square brackets, D forms with d. Residues, ends and D or L forms follow the SMILES beside them. ξ: configuration not given here. *: point of attachment. Leu(3R-OH,Nα-propionyl) = CCC(=O)N[C@H](C(=O)*)[C@H](O)C(C)C; X1 = CC(C)[C@@H](O[*:3])[C@H](N[*:1])C(=O)[*:2]; X3 = CC(C)C(O[*:3])C(N[*:1])C(=O)[*:2]; ξLeu(3ξ-OH) = CC(C)C(O)C(N)C(=O)O; NMeT = CN[CH](C(=O)O)[CH](C)O; dPhLac = O=C(O)[C@H](O)Cc1ccccc1; PhLac = O=C(O)[CH](O)Cc1ccccc1; NMeA = CN[CH](C)C(=O)O; NMeDha = C=C(NC)C(=O)O

Tests used:
Gαq proteins = conditions: as has been reported; dynamic mass redistribution; cited from earlier work
[1] = test system: 92.1 uveal melanoma cell line (heterozygous GNAQ Q209L); test: Cell proliferation assay (resazurin cell viability), 92.1 cell line; assay type: cell-based
From the text: (§1) Cell Proliferation Assays with Chromodepsins (compounds (A1) and 2-15): Cell line descriptions: 92.1—uveal melanoma cell line, derived from primary tumor, harboring heterozygous GNAQ Q209L mutation. Purchased from Sigma Aldrich. MP41 (CRL-3297) -uveal melanoma cell line, derived from primary tumor, harboring heterozygous GNA11 Q209L mutation. Purchased from ATCC. A375—skin melanoma cell line, harboring homozygous BRAF V600E mutation. Origin: Cancer Cell Line Encyclopedia (CCLE). SK-MEL-30—skin melanoma cell line, harboring heterozygous NRAS Q61K mutation. Origin: CCLE.
(§2) Cells were cultured in 96-well plates in a total volume of 100 μL at 37° C., 5% CO2 and 95% relative humidity. All cell lines were cultured in RPMI Medium (RPMI 1640 w/o L-glutamine, Bioconcept ref. 1-41F01-I) except A375, DMEM medium (DMEM high glucose (4.5 g/L), Bioconcept, ref. 1-26F01-I), and supplemented with 10% FCS (Bioconcept, ref. 2-01F30-I). Two to three thousand cells were seeded in 96-well plates per well the night before they were treated with compounds (concentration range: from 260 nM to 0.036 nM with ⅓ dilution steps; for 7 the concentration range was increased from 10000 nM to 1.52 nM with ⅓ dilution steps). Cell viability was measured by addition of 10 ul of resazurin per well after 96 hours of treatment. Results were analyzed and plotted using GraphPad Prism 9.0.1.

MDCK-LE monolayers = test: Cell-based transwell assay with MDCK-low efflux monolayers (passive permeability); assay type: in vitro ADME; conditions: for % Fraction absorbed / % Recovery / Papp A − B: MDCK-LE monolayers; for reduction in % FA: versus macrocyclic chromodepsins with N-acyl-Hle side chain
Procedure: Cell-based transwell assays with MDCK-low efflux monolayers: Compounds (A1) and 2-15 were tested in MDCK cell sub-clones with low effluxt ransporter activity (MDCK-LE) in order to determine their passive permeability. The incubations were performed at a contract research organization as described previously.

[2] = test system: A375 skin melanoma cell line (homozygous BRAF V600E); test: Cell proliferation assay (resazurin cell viability), A375 cell line; assay type: cell-based
From the text: as §1, §2

[3] = test system: SK-MEL-30 skin melanoma cell line (heterozygous NRAS Q61K); test: Cell proliferation assay (resazurin cell viability), SK-MEL-30 cell line; assay type: cell-based
From the text: as §1, §2

[4] = test system: MP41 uveal melanoma cell line (heterozygous GNA11 Q209L); test: Cell proliferation assay (resazurin cell viability), MP41 cell line; assay type: cell-based
From the text: as §1, §2

[5] = EPSA determination by supercritical fluid chromatography; assay type: physicochemical; conditions: for EPSA: modified EPSA method, SFC; for change in EPSA (in words): versus macrocyclic chromodepsins with N-acyl-Hle side chain
Procedure: […] by supercritical fluid chromatography: Compounds (A1) and 2-15 were tested by supercritical fluid chromatography (SFC) to determine their ESAPSA values. Samples were analyzed using a Chirex 3014 column ([…], 3×100 mm column, 100 Å pore size; Phenomenex. The starting conditions were 5% methanol containing 20 mM ammonium formate and 95% scCO2. The gradient was increased linearly to 60% methanol containing 20 mM ammonium formate in 4.5 min.

[6] = test system: 92.1 and MP41 cell lines (GNAQ/GNA11 mutant uveal melanoma); test: Cell proliferation assays, potency ranking over both uveal melanoma lines; assay type: cell-based; conditions: for loss of potency compared to compound (A1) (growth inhibition): 92.1 and MP41 cell lines
From the text: The selective antiproliferative profile of the chromodepsins against GNAQ/GNA11 mutant cell lines is confirmed by the lack of activity against the A375 and SK MEL 30 cell lines that are independent from GNAQ/GNA11 signaling. The potency ranking using the 92.1 and MP41 cell lines is in good agreement with the previously SAR studies. […] These findings are in line with a recent report from Voss et al., highlighting the importance of the “lipophilic anchors” of compound (A1) at the residues varied in compounds 2 and 3, in context of binding kinetics and prolonged residence time on the target proteins. The retained potency of compound 4 indicates a promising exit vector for potential synthetic or biosynthetic modifications of the scaffold. […] The linearized depsipeptides compounds 5-7 lack any antiproliferative activity. In this experimental setup, the cellular permeability of the compounds was a crucial factor contributing to the observed antiproliferative potency. Therefore, all compounds were characterized in a low efflux MCDK assay and determined their exposed polar surface areas (EPSA) in order to assess their passive cellular permeabilities. All macrocyclic chromodepsins that feature the N acyl Hle side chain show similar results concerning their % fraction absorbed (% FA; average ˜60% FA+20%) and EPSA values.
as §1, §2

[7] = 92.1 (GNAQ Q209L), 96 hours of treatment, read-out: GI50 by cell line, 92.1
[8] = 92.1 cell line, average of Rep. 1 and 2, read-out: GI50 92.1 Average
[9] = 92.1 cell line, replicate 1, read-out: GI50 92.1 Rep. 1
[10] = 92.1 cell line, replicate 2, read-out: GI50 92.1 Rep. 2
[11] = A375 (GNAQ/11 wild type), 96 hours of treatment, read-out: GI50 by cell line, A375
[12] = A375 cell line, average of Rep. 1 and 2, read-out: GI50 A375 Average
[13] = A375 cell line, replicate 1, read-out: GI50 A375 Rep. 1
[14] = A375 cell line, replicate 2, read-out: GI50 A375 Rep. 2
[15] = SK-MEL-30 (GNAQ/11 wild type), 96 hours of treatment, read-out: GI50 by cell line, SK-MEL-30
[16] = SK-MEL-30 cell line, average of Rep. 1 and 2, read-out: GI50 SK-MEL-30 Average
[17] = SK-MEL-30 cell line, replicate 1, read-out: GI50 SK-MEL-30 Rep. 1
[18] = SK-MEL-30 cell line, replicate 2, read-out: GI50 SK-MEL-30 Rep. 2
[19] = MP41 (GNA11 Q209L), 96 hours of treatment, read-out: GI50 by cell line, MP41
[20] = MP41 cell line, average of Rep. 1 and 2, read-out: GI50 MP41 Average
[21] = MP41 cell line, replicate 1, read-out: GI50 MP41 Rep. 1
[22] = MP41 cell line, replicate 2, read-out: GI50 MP41 Rep. 2

For `C=C1C(=O)NC(C)C(=O)N(C)C(C)C(=O)NC(C(O)C(C)C)C(=O)N(C)C(C(C)OC)C(=O)OC(C(C)C)C(NC(C)=O)C(=O)OC(Cc2ccccc2)C(=O)N1C` (stereo not drawn) [Compound 12] (Ac-[X3][PhLac][NMeDha]A[NMeA][ξLeu(3ξ-OH)][NMeT](Me); ester 1-C; configuration not given here), the “fold change compared to compound (A1), inhibition of Gαq proteins” value (Gαq proteins) is listed as 16 fold, the GI50 [1, 7] is listed as 1.74 µM and the GI50 [1, 8] is listed as 1.74 µM. For the same compound, the GI50 [1, 9] was 1.13 µM, the GI50 [1, 10] was 2.35 µM and the “% Fraction absorbed” value (MDCK-LE monolayers) was 9.9%. The “% Recovery” value (MDCK-LE monolayers) was 83%, the “Papp A − B” value (MDCK-LE monolayers) was 0.55 ×10⁻⁶ cm/s and the “reduction in % FA” value (MDCK-LE monolayers) was roughly 5 fold. The GI50 [2, 11] was greater than 10 µM, the GI50 [2, 12] was greater than 10 µM and the GI50 [2, 13] was greater than 10 µM. For the same compound, the GI50 [2, 14] was greater than 10 µM, the GI50 [3, 15] was greater than 10 µM and the GI50 [3, 16] was greater than 10 µM. For the same compound, the GI50 [3, 17] was greater than 10 µM, the GI50 [3, 18] was greater than 10 µM and the GI50 [4, 19] was 1.18 µM. The GI50 [4, 20] was 1.18 µM, the GI50 [4, 21] was 0.994 µM and the GI50 [4, 22] was 1.35 µM. The EPSA [5] was 106 A^2, the “change in EPSA (in words)” value [5] was “slight changes” and the “loss of potency compared to compound (A1) (growth inhibition)” value [6] was greater than 3.000 fold.
`C=C1C(=O)N[C@@H](C)C(=O)N(C)[C@@H](C)C(=O)N[C@@H]([C@H](OC(=O)[C@@H](NC(=O)CC)[C@H](O)C(C)C)C(C)C)C(=O)N(C)[C@@H]([C@@H](C)OC)C(=O)O[C@H](C)[C@H](NC(C)=O)C(=O)O[C@H](Cc2ccccc2)C(=O)N1C` [Compound 14] (Ac-T[dPhLac][NMeDha]A[NMeA][X1](Leu(3R-OH,Nα-propionyl))[NMeT](Me); ester 1-C) gave a GI50 [1, 7] of 0.0052 µM, a GI50 [1, 8] of 0.0052 µM and a GI50 [1, 9] of 0.00295 µM. The GI50 [1, 10] was 0.00753 µM, the “% Fraction absorbed” value (MDCK-LE monolayers) was 53.3% and the “% Recovery” value (MDCK-LE monolayers) was 85%. For the same compound, the “Papp A − B” value (MDCK-LE monolayers) was 3.32 ×10⁻⁶ cm/s, the GI50 [2, 11] was greater than 0.26 µM and the GI50 [2, 12] was greater than 0.26 µM. The GI50 [2, 13] was greater than 0.26 µM, the GI50 [2, 14] was greater than 0.26 µM and the GI50 [3, 15] was greater than 0.26 µM. For the same compound, the GI50 [3, 16] was greater than 0.26 µM, the GI50 [3, 17] was greater than 0.26 µM and the GI50 [3, 18] was greater than 0.26 µM. The GI50 [4, 19] was 0.0022 µM, the GI50 [4, 20] was 0.0022 µM and the GI50 [4, 21] was 0.0015 µM. For the same compound, the GI50 [4, 22] was 0.00281 µM, the EPSA [5] was 95 A^2 and the “loss of potency compared to compound (A1) (growth inhibition)” value [6] was roughly 10 fold.
For `C=C1C(=O)NC(C)C(=O)N(C)C(C)C(=O)NC(C(O)C(C)C)C(=O)N(C)C(C(C)OC)C(=O)OC(C)C(NC(C)=O)C(=O)OC(Cc2ccccc2)C(=O)N1C` (stereo not drawn) [Compound 15] (Ac-T[PhLac][NMeDha]A[NMeA][ξLeu(3ξ-OH)][NMeT](Me); ester 1-C; configuration not given here), the GI50 [1, 7] was greater than 10 µM, the GI50 [1, 8] was greater than 10 µM and the GI50 [1, 9] was greater than 10 µM. The GI50 [1, 10] was greater than 10 µM, the “% Fraction absorbed” value (MDCK-LE monolayers) was 15% and the “% Recovery” value (MDCK-LE monolayers) was 90%. For the same compound, the “Papp A − B” value (MDCK-LE monolayers) was 0.79 ×10⁻⁶ cm/s, the “reduction in % FA” value (MDCK-LE monolayers) was roughly 5 fold and the GI50 [2, 11] was greater than 10 µM. It also gave a GI50 [2, 12] greater than 10 µM, a GI50 [2, 13] greater than 10 µM and a GI50 [2, 14] greater than 10 µM. It also gave a GI50 [3, 15] greater than 10 µM, a GI50 [3, 16] greater than 10 µM and a GI50 [3, 17] greater than 10 µM. For the same compound, the GI50 [3, 18] was greater than 10 µM, the GI50 [4, 19] was greater than 10 µM and the GI50 [4, 20] was greater than 10 µM. It also gave a GI50 [4, 21] greater than 10 µM, a GI50 [4, 22] greater than 10 µM and an EPSA [5] of 109 A^2. For the same compound, the “change in EPSA (in words)” value [5] was “slight changes”, the “antiproliferative activity (in words)” value [6] was “some antiproliferative activity observed at the highest doses tested” and the GI50 ([6]; cell line not specified) was greater than 10 µM.
